Experimental findings from patent US20240246981A1, “[…] DERIVATIVES AS INHIBITORS OF […]-PEPTIDE CYCLOTRANSFERASE AND […]-PEPTIDE CYCLOTRANSFERASE LIKE PROTEIN” (Boehringer Ingelheim International GmbH, priority 2022, published 2024) are described below.

Chain of QPCTL (Q9NXS2 whole entry): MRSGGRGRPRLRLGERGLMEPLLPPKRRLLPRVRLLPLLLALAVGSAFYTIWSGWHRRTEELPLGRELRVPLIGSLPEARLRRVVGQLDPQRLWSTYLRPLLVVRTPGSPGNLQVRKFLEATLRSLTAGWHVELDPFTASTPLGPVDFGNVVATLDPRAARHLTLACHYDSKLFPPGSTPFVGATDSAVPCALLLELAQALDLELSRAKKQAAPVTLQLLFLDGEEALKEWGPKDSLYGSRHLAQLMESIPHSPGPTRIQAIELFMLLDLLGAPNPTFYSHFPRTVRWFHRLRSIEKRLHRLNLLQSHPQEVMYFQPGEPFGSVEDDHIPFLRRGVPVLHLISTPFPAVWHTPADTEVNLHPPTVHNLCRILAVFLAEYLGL
Chain of QPCT (Q16769 29-361): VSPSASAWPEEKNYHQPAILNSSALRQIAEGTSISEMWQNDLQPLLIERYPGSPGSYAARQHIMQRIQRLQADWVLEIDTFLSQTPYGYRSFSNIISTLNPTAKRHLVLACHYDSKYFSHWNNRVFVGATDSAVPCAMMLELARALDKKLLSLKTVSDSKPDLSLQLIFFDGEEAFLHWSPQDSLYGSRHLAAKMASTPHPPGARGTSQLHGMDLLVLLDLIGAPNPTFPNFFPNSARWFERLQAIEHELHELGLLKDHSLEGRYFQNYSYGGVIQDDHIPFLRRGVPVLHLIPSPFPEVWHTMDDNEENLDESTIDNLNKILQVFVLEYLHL

Test system in the first data set: not listed separately
Put plainly: Assay C: permeability in CACO-2 cells. The class given is in vitro ADME. The settings on record: human, pH 7.2; Caco-2, apical to basolateral; compounds of the invention, Table 7. A digest of the protocol:
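Compound in transport solution applied to apical or basolateral donor side for A-B or B-A permeability, 3 filter replicates. Donor sampled at start and end, receiver at intervals up to 2 hours with volume replaced; concentrations by HPLC-MS/MS or scintillation counting.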
`Cn1cnnc1C1(F)CCN(c2c(C#N)cccc2-c2cnc3nn(C(F)(F)F)cc3c2)CC1` [compound 75] came in with a Papp A→B of 12 ×10⁻⁶ cm/s.
On the same count and under the same terms, as for `Cn1cnnc1C1CCN(c2c(C#N)cccc2-c2cncc3cnn(Cc4ccccc4)c23)CC1` [compound 76], the figure is 2.6 ×10⁻⁶ cm/s.
Consider `Cn1cnnc1C1CCN(c2c(C#N)cccc2-c2cncc3cn(Cc4ccccc4)nc23)CC1` [compound 77], for which the Papp A→B was 0.7 ×10⁻⁶ cm/s. Compared with the last compound, the Papp A→B is about 3.7-fold lower.
On the same count and under the same terms, in the case of `Cn1cnnc1C1(F)CCN(c2c(C#N)cccc2-c2cncc3cn(Cc4ccccc4)nc23)CC1` [compound 78] it was 6.5 ×10⁻⁶ cm/s; in that of `Cn1cnnc1C1(F)CCN(c2c(C#N)cccc2-c2cnn3nc(-c4cccc(Cl)c4)ccc23)CC1` [compound 79], 40 ×10⁻⁶ cm/s; in that of `Cn1cnnc1C1CCN(c2c(C#N)cccc2-c2cnn3nc(-c4cccc(Cl)c4)ccc23)CC1` [compound 81], 39 ×10⁻⁶ cm/s.
Same read-out and setting: in the case of `Cc1cc(-c2cccc(C#N)c2N2CCC(F)(c3nncn3C)CC2)cnc1F` [compound 82] it was 41 ×10⁻⁶ cm/s.
Still for that read-out and setting: in the case of `Cc1cc(F)ncc1-c1cccc(C#N)c1N1CCC(F)(c2nncn2C)CC1` [compound 83] it was 55 ×10⁻⁶ cm/s; in that of `Cn1cnnc1C1(F)CCN(c2c(C#N)cccc2-c2cnc3nc(-c4cccc(Cl)c4)ccn23)CC1` [compound 84], 33 ×10⁻⁶ cm/s.
In turn, `Cn1cnnc1C1(F)CCN(c2c(C#N)cccc2-c2cnc3nn(C(C)(C)C)c(Cl)c3c2)CC1` [compound 86] registered a Papp A→B of 18 ×10⁻⁶ cm/s.

Still in this data set, the particulars now being: human, pH 7.2; Caco-2; compounds of the invention, Table 7.
Take `Cn1cnnc1C1(F)CCN(c2c(C#N)cccc2-c2cnc3nn(C(F)(F)F)cc3c2)CC1` [compound 75]: the efflux ratio stood at 4.
Same read-out and setting: as for `Cn1cnnc1C1CCN(c2c(C#N)cccc2-c2cncc3cnn(Cc4ccccc4)c23)CC1` [compound 76], the figure is 22.3.
The same measure, in the same setting: in the case of `Cn1cnnc1C1CCN(c2c(C#N)cccc2-c2cncc3cn(Cc4ccccc4)nc23)CC1` [compound 77] it was 52.3.
On the same count and under the same terms, in the case of `Cn1cnnc1C1(F)CCN(c2c(C#N)cccc2-c2cncc3cn(Cc4ccccc4)nc23)CC1` [compound 78] it was 7.4.
For `Cn1cnnc1C1(F)CCN(c2c(C#N)cccc2-c2cnn3nc(-c4cccc(Cl)c4)ccc23)CC1` [compound 79], the efflux ratio was 0.7.
Same read-out and setting: in the case of `Cn1cnnc1C1CCN(c2c(C#N)cccc2-c2cnn3nc(-c4cccc(Cl)c4)ccc23)CC1` [compound 81] it was 0.7; in that of `Cc1cc(-c2cccc(C#N)c2N2CCC(F)(c3nncn3C)CC2)cnc1F` [compound 82], 1.6.
Same read-out and setting: in the case of `Cc1cc(F)ncc1-c1cccc(C#N)c1N1CCC(F)(c2nncn2C)CC1` [compound 83] it was 1.3; in that of `Cn1cnnc1C1(F)CCN(c2c(C#N)cccc2-c2cnc3nc(-c4cccc(Cl)c4)ccn23)CC1` [compound 84], 1.8.
Still for that read-out and setting: as for `Cn1cnnc1C1(F)CCN(c2c(C#N)cccc2-c2cnc(F)cc2Cl)CC1` [compound 85], the figure is 1.8; as for `Cn1cnnc1C1(F)CCN(c2c(C#N)cccc2-c2cnc3nn(C(C)(C)C)c(Cl)c3c2)CC1` [compound 86], 1.6.

For another data set, the system named is SIRPα signalling induced by A549 cells. Put plainly: Assay B: SIRPα signalling assay using A549 cells. The class given is cell-based, human. As to conditions: Homo sapiens, compounds of the invention, Table 4, read-out: Inhibition of SIRα signalling induced by A549 cells: IC50. A digest of the protocol:
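5000 Raji or A549 cells were cultured 48 h at 37 °C with serially diluted compound (DMSO), then 15000 Jurkat PathHunter SIRPα reporter cells were added for 5 h. Beta-galactosidase luminescence was developed at RT, and IC50 obtained by 4-parameter sigmoidal fit.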
Consider `Cn1cnnc1C1(F)CCN(c2c(C#N)cccc2-c2cnc3nn(C(F)(F)F)cc3c2)CC1` [compound 75], for which the half-inhibitory concentration (IC50) was found to be 7 nM.
Still for that read-out and setting: in the case of `Cn1cnnc1C1CCN(c2c(C#N)cccc2-c2cncc3cnn(Cc4ccccc4)c23)CC1` [compound 76] it was 46 nM; in that of `Cn1cnnc1C1CCN(c2c(C#N)cccc2-c2cncc3cn(Cc4ccccc4)nc23)CC1` [compound 77], 1860 nM.
Still for that read-out and setting: as for `Cn1cnnc1C1(F)CCN(c2c(C#N)cccc2-c2cncc3cn(Cc4ccccc4)nc23)CC1` [compound 78], the figure is 440 nM; as for `Cn1cnnc1C1(F)CCN(c2c(C#N)cccc2-c2cnn3nc(-c4cccc(Cl)c4)ccc23)CC1` [compound 79], 22 nM.
For `Cn1cnnc1C1CCN(c2c(C#N)cccc2-c2cnn3nc(-c4cccc(Cl)c4)ccc23)CC1` [compound 81], the IC50 stood at 27 nM.
Same read-out and setting: as for `Cc1cc(-c2cccc(C#N)c2N2CCC(F)(c3nncn3C)CC2)cnc1F` [compound 82], the figure is 17 nM; as for `Cc1cc(F)ncc1-c1cccc(C#N)c1N1CCC(F)(c2nncn2C)CC1` [compound 83], 47 nM; as for `Cn1cnnc1C1(F)CCN(c2c(C#N)cccc2-c2cnc3nc(-c4cccc(Cl)c4)ccn23)CC1` [compound 84], 63 nM.
On the same count and under the same terms, as for `Cn1cnnc1C1(F)CCN(c2c(C#N)cccc2-c2cnc(F)cc2Cl)CC1` [compound 85], the figure is 80 nM.
The same measure, in the same setting: in the case of `Cn1cnnc1C1(F)CCN(c2c(C#N)cccc2-c2cnc3nn(C(C)(C)C)c(Cl)c3c2)CC1` [compound 86] it was 23 nM.

The target in another data set is QPCTL (Homo sapiens (Human), UniProt Q9NXS2). Put plainly: Assay A: biochemical QPCTL activity assay (MALDI-TOF MS). The settings on record: compounds of the invention, Table 2; read-out: Inhibition of QPCTL: IC50. The procedure, abridged:
(§1)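 Compounds preincubated 10 min at 24 °C with enzyme in 20 mM Tris pH 7.5, 0.1 mM TCEP, 0.01% BSA, 0.001% Tween20; CD47 peptide substrate (final 10 μM for QPCTL, 20 μM for QPCT) reacted 40 min at 24 °C. Pyroglutamate product read by MALDI-TOF MS versus internal standard, normalized to controls; four-parameter fit.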
Turning to `Cn1cnnc1C1(F)CCN(c2c(C#N)cccc2-c2cnc3nn(C(F)(F)F)cc3c2)CC1` [compound 75], the IC50 came to 1 nM.
Same read-out and setting: as for `Cn1cnnc1C1CCN(c2c(C#N)cccc2-c2cncc3cnn(Cc4ccccc4)c23)CC1` [compound 76], the figure is 1 nM; as for `Cn1cnnc1C1CCN(c2c(C#N)cccc2-c2cncc3cn(Cc4ccccc4)nc23)CC1` [compound 77], 30 nM.
As for `Cn1cnnc1C1(F)CCN(c2c(C#N)cccc2-c2cncc3cn(Cc4ccccc4)nc23)CC1` [compound 78], the IC50 came out at 34 nM.
Regarding `Cn1cnnc1C1(F)CCN(c2c(C#N)cccc2-c2cnn3nc(-c4cccc(Cl)c4)ccc23)CC1` [compound 79], the IC50 worked out at 2 nM.
Turning to `Cn1cnnc1C1CCN(c2c(C#N)cccc2-c2cnn3nc(-c4cccc(Cl)c4)ccc23)CC1` [compound 81], the 50% inhibitory concentration (IC50) was 1 nM.
Still for that read-out and setting: in the case of `Cc1cc(-c2cccc(C#N)c2N2CCC(F)(c3nncn3C)CC2)cnc1F` [compound 82] it was 2 nM.
Still for that read-out and setting: in the case of `Cc1cc(F)ncc1-c1cccc(C#N)c1N1CCC(F)(c2nncn2C)CC1` [compound 83] it was 1 nM.
Same read-out and setting: in the case of `Cn1cnnc1C1(F)CCN(c2c(C#N)cccc2-c2cnc3nc(-c4cccc(Cl)c4)ccn23)CC1` [compound 84] it was 3 nM; in that of `Cn1cnnc1C1(F)CCN(c2c(C#N)cccc2-c2cnc(F)cc2Cl)CC1` [compound 85], 3 nM; in that of `Cn1cnnc1C1(F)CCN(c2c(C#N)cccc2-c2cnc3nn(C(C)(C)C)c(Cl)c3c2)CC1` [compound 86], 1 nM.

Another data set deals with SIRPα signalling induced by Raji cells. Put plainly: Assay B: SIRPα signalling assay using Raji cells. The settings on record: Homo sapiens, compounds of the invention, Table 4, read-out: Inhibition of SIRα signalling induced by Raji cells: IC50. In kind it is cell-based, human. A digest of the protocol:
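SIRPα signalling induced by Raji cells in a PathHunter reporter line, read as β-galactosidase complementation luminescence. Detection reagent 1 added for 15 min, then reagent 2 for 60 min in the dark, both at room temperature.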
Consider `Cn1cnnc1C1(F)CCN(c2c(C#N)cccc2-c2cnc3nn(C(F)(F)F)cc3c2)CC1` [compound 75], for which the IC50 was found to be 7 nM.
As for `Cn1cnnc1C1CCN(c2c(C#N)cccc2-c2cncc3cnn(Cc4ccccc4)c23)CC1` [compound 76], the IC50 stood at 40 nM.
Regarding `Cn1cnnc1C1CCN(c2c(C#N)cccc2-c2cncc3cn(Cc4ccccc4)nc23)CC1` [compound 77], the IC50 is 374 nM.
On the same count and under the same terms, as for `Cn1cnnc1C1(F)CCN(c2c(C#N)cccc2-c2cncc3cn(Cc4ccccc4)nc23)CC1` [compound 78], the figure is 456 nM; as for `Cn1cnnc1C1(F)CCN(c2c(C#N)cccc2-c2cnn3nc(-c4cccc(Cl)c4)ccc23)CC1` [compound 79], 16 nM; as for `Cn1cnnc1C1CCN(c2c(C#N)cccc2-c2cnn3nc(-c4cccc(Cl)c4)ccc23)CC1` [compound 81], 27 nM.
As to `Cc1cc(-c2cccc(C#N)c2N2CCC(F)(c3nncn3C)CC2)cnc1F` [compound 82], the IC50 came out at 63 nM.
On to `Cc1cc(F)ncc1-c1cccc(C#N)c1N1CCC(F)(c2nncn2C)CC1` [compound 83], for which the IC50 worked out at 102 nM.
`Cn1cnnc1C1(F)CCN(c2c(C#N)cccc2-c2cnc3nc(-c4cccc(Cl)c4)ccn23)CC1` [compound 84]: the IC50 was determined as 91 nM.
As to `Cn1cnnc1C1(F)CCN(c2c(C#N)cccc2-c2cnc(F)cc2Cl)CC1` [compound 85], the IC50 was 70 nM.
Still for that read-out and setting: in the case of `Cn1cnnc1C1(F)CCN(c2c(C#N)cccc2-c2cnc3nn(C(C)(C)C)c(Cl)c3c2)CC1` [compound 86] it was 13 nM.

The next data set has as its target QPCT (Homo sapiens (Human), UniProt Q16769). Put plainly: Assay A: biochemical QPCT activity assay (MALDI-TOF MS). As to conditions: compounds of the invention, Table 2; read-out: Inhibition of QPCT: IC50. The procedure, abridged: as §1
Consider `Cn1cnnc1C1(F)CCN(c2c(C#N)cccc2-c2cnc3nn(C(F)(F)F)cc3c2)CC1` [compound 75], for which the IC50 was 1 nM.
With `Cn1cnnc1C1CCN(c2c(C#N)cccc2-c2cncc3cnn(Cc4ccccc4)c23)CC1` [compound 76], the IC50 came out at 5 nM.
The same measure, in the same setting: as for `Cn1cnnc1C1CCN(c2c(C#N)cccc2-c2cncc3cn(Cc4ccccc4)nc23)CC1` [compound 77], the figure is 88 nM.
On the same count and under the same terms, as for `Cn1cnnc1C1(F)CCN(c2c(C#N)cccc2-c2cncc3cn(Cc4ccccc4)nc23)CC1` [compound 78], the figure is 42 nM; as for `Cn1cnnc1C1(F)CCN(c2c(C#N)cccc2-c2cnn3nc(-c4cccc(Cl)c4)ccc23)CC1` [compound 79], 3 nM; as for `Cn1cnnc1C1CCN(c2c(C#N)cccc2-c2cnn3nc(-c4cccc(Cl)c4)ccc23)CC1` [compound 81], 5 nM.
Same read-out and setting: in the case of `Cc1cc(-c2cccc(C#N)c2N2CCC(F)(c3nncn3C)CC2)cnc1F` [compound 82] it was 3 nM; in that of `Cc1cc(F)ncc1-c1cccc(C#N)c1N1CCC(F)(c2nncn2C)CC1` [compound 83], 3 nM.
`Cn1cnnc1C1(F)CCN(c2c(C#N)cccc2-c2cnc3nc(-c4cccc(Cl)c4)ccn23)CC1` [compound 84]: the IC50 stood at 6 nM.
The same measure, in the same setting: as for `Cn1cnnc1C1(F)CCN(c2c(C#N)cccc2-c2cnc(F)cc2Cl)CC1` [compound 85], the figure is 4 nM; as for `Cn1cnnc1C1(F)CCN(c2c(C#N)cccc2-c2cnc3nn(C(C)(C)C)c(Cl)c3c2)CC1` [compound 86], 1 nM.
